US20240158446A1, “CYCLIC COMPOUND HAVING SELECTIVE INHIBITORY ACTION ON KRAS OVER HRAS AND NRAS” (CHUGAI SEIYAKU KABUSHIKI KAISHA, priority 2021, published 2024)
Where two headings read alike, the source gives them in different places. *1 amine or outer side, *2 acyl side, *3 side chain or, on linkers, in order; H or OH if unused. Where a SMILES comes first, the peptide text is derived from it. Bridges are numbered along the chain shown (N, C = ends). [ ]: non-standard residue; d: D form. The star is where a group is joined. hPhe(3-Cl-4-CF3) = N[C@@H](CCc1ccc(C(F)(F)F)c(Cl)c1)C(=O)O; X20 = Cc1ccc(C[C@@H](C(=O)[*:2])N(CC2CCCC2)[*:1])cc1; NMeGly(cPent) = CN[C@H](C(=O)O)C1CCCC1; NMeD = CN[C@@H](CC(=O)O)C(=O)O; NMeL = CN[C@@H](CC(C)C)C(=O)O; Morpholide = C1CN(*)CCO1; NMeA = CN[C@@H](C)C(=O)O; Ac5c = NC1(C(=O)O)CCCC1; Aze = O=C(O)[C@@H]1CCN1; Sar = CNCC(=O)O

How the values were obtained:
[1] = biological target: GDP-bound KRAS wild-type protein (Homo sapiens, UniProt P01116); experiment: Binding to KRAS by surface plasmon resonance (SPR), Single Cycle Kinetics; details: GDP-bound KRAS wild-type protein, read-out: KRAS KD
[2] = biological target: GDP-bound NRAS wild-type protein (Homo sapiens, UniProt P01111); experiment: Binding to NRAS by surface plasmon resonance (SPR), Single Cycle Kinetics; details: SPR, GDP-bound NRAS wild-type protein vs GDP-bound KRAS wild-type protein
[3] = biological target: GDP-bound HRAS wild-type protein (Homo sapiens, UniProt P01112); experiment: Binding to HRAS by surface plasmon resonance (SPR), Single Cycle Kinetics; details: SPR, GDP-bound HRAS wild-type protein vs GDP-bound KRAS wild-type protein
[4] = SPR Single Cycle Kinetics, 1:1 binding model

Sequence of GDP-bound KRAS wild-type protein (P01116 whole entry): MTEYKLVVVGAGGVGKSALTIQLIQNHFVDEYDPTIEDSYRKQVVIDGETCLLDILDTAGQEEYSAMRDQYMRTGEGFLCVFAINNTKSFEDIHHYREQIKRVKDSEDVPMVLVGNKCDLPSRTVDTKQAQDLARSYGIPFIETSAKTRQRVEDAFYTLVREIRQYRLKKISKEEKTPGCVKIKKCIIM
Sequence of GDP-bound NRAS wild-type protein (P01111 whole entry): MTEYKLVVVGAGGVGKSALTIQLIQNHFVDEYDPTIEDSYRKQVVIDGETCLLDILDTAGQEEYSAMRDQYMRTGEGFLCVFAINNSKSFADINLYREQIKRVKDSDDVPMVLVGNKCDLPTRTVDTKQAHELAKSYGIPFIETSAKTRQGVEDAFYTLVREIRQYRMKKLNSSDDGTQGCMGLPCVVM
Sequence of GDP-bound HRAS wild-type protein (P01112 whole entry): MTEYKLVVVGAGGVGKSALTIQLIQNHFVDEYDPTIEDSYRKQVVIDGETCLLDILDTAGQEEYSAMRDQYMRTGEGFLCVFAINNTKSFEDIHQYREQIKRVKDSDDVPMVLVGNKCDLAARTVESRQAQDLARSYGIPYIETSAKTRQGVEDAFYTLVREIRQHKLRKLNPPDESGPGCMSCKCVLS

| Compound | Kd ([1]; SPR, Single Cycle Kinetics) [nM] | NRAS/KRAS (ratio of KD value for NRAS to KD value for KRAS) [2] | HRAS/KRAS (ratio of KD value for HRAS to KD value for KRAS) [3] | Kd [1, 4] [nM] | NRAS/KRAS (ratio of KD value with respect to NRAS to KD value with respect to KRAS) [2] | HRAS/KRAS (ratio of KD value with respect to HRAS to KD value with respect to KRAS) [3] |
| --- | --- | --- | --- | --- | --- | --- |
| CCO[C@@H]1C[C@H]2C(=O)NC3(CCC3)C(=O)N(C)[C@@H]([C@@H](C)CC)C(=O)N(C)[C@H](C(=O)N(C)C)CC(=O)N(C)[C@@H](CC)C(=O)N[C@@H]([C@@H](C)CC)C(=O)N(C)CC(=O)N(C)[C@H]3C/C=C\CCN(C3=O)[C@@H](Cc3ccc(C(F)(F)F)cc3)C(=O)N(C)CC(=O)N[C@@H](CCc3cc(F)c(C(F)(F)F)c(F)c3)C(=O)N2C1 [PP1087, (2S,8S,12R,14S,20S,23S,27S,30S,36S,38Z)-8-[2-[3,5-difluoro-4-(trifluoromethyl)phenyl]ethyl]-12-ethoxy-27-ethyl-N,N,4,19,22,26,32,35-octamethyl-20,30-bis[(1S)-1-methylpropyl]-3,6,9,15,18,21,25,28,31,34,42-undecaoxo-2-[[4-(trifluoromethyl)phenyl]methyl]spiro[1,4,7,10,16,19,22,26,29,32,35-undecazatricyclo[34.5.1.0^10,14]dotetracont-38-ene-17,1′-cyclobutane]-23-carboxamide] | 0.095 | A (a compound having 10 or more and less than 20 is denoted as A) | A (a compound having 10 or more and less than 20 is denoted as A) | – | – | – |
| C=CC[C@H]1C(=O)N[C@@H]([C@@H](C)CC)C(=O)N(C)CC(=O)N(C)[C@H]2CCCCN(C2=O)[C@@H](Cc2ccc(C(F)(F)F)cc2)C(=O)N(C)CC(=O)N[C@@H](CCc2cc(F)c(C(F)(F)F)c(F)c2)C(=O)N2C[C@H](OCC)C[C@H]2C(=O)NC2(CCC2)C(=O)N(C)[C@@H](C2CCCC2)C(=O)N(C)[C@H](C(=O)N2CCOCC2)CC(=O)N1C [PP0710] | – | – | – | 0.029 | C (A compound having a KD ratio of 0.1 or more and less than 3 is denoted as C) | B (a compound having 3 or more and less than 10 is denoted as B) |
| CCO[C@@H]1C[C@H]2C(=O)NC3(CCC3)C(=O)N(C)[C@@H](C3CCCC3)C(=O)N(C)[C@H](C(=O)N(C)C)CC(=O)N(C)[C@H]3CCCCCc4ccc(cc4)C[C@@H](C(=O)N(C)CC(=O)N[C@@H](CCc4ccc(C(F)(F)F)c(OC)c4)C(=O)N2C1)N1CC/C=C\C[C@@H](C1=O)N(C)C(=O)CN(C)C(=O)[C@H]([C@@H](C)CC)NC3=O [PP2262] | 0.24 | A (a compound having 10 or more and less than 20 is denoted as A) | B (a compound having 3 or more and less than 10 is denoted as B) | – | – | – |
| CCCOC[C@H]1C(=O)N[C@@H]([C@@H](C)CC)C(=O)N(C)CC(=O)N(C)[C@H]2C/C=C\CCN(C2=O)[C@@H](CC2CCC(F)(F)CC2)C(=O)N(C)CC(=O)N[C@@H](CCc2ccc(C(F)(F)F)c(OC)c2)C(=O)N2C[C@H](OCC)C[C@H]2C(=O)N(C)C2(CCC2)C(=O)N(C)[C@@H](C2CCCC2)C(=O)N(C)[C@H](C(=O)N(C)C)CC(=O)N1C [PP2350] | 0.35 | A (a compound having 10 or more and less than 20 is denoted as A) | A (a compound having 10 or more and less than 20 is denoted as A) | – | – | – |
| CC[C@H](C)[C@@H]1NC(=O)[C@H](CC(C)C)N(C)C(=O)C[C@@H](C(=O)N2CCOCC2)N(C)C(=O)[C@H](C2CCCC2)N(C)C(=O)C2(CCCC2)NC(=O)[C@@H]2CCCN2C(=O)[C@H](CCc2ccc(C(F)(F)F)c(Cl)c2)NC(=O)CN(C)C(=O)[C@H](Cc2ccc(C)cc2)N(CC2CCCC2)C(=O)[C@@H]2CCN2C(=O)[C@H](C)N(C)C1=O [PP0084] ([NMeL]I[NMeA][Aze][X20][Sar][hPhe(3-Cl-4-CF3)]P[Ac5c][NMeGly(cPent)][NMeD]-Morpholide; lactam N-11) | – | C (A compound having a KD ratio of 0.1 or more and less than 3 is denoted as C) | B (a compound having 3 or more and less than 10 is denoted as B) | 2.7 | – | – |
